Read-outs that look alike come from different tables or passages of the source.
Target: Human factor D (Homo sapiens (Human), UniProt P00746)
Assay: Human Factor D Assay
Type: biochemical
Procedure, shortened: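 Serum-purified factor D (80 nM final) preincubated 5 min at room temperature with compound in 50 mM Tris, 1M NaCl, pH 7.5. Z-L-Lys-SBzl and DTNB added at 100 μM each; OD405 followed kinetically over 30 min. IC50 by non-linear regression of % inhibition.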

[1] = human factor D 80 nM, substrate Z-L-Lys-SBzl, DTNB

Chain of Human factor D (P00746 26-253): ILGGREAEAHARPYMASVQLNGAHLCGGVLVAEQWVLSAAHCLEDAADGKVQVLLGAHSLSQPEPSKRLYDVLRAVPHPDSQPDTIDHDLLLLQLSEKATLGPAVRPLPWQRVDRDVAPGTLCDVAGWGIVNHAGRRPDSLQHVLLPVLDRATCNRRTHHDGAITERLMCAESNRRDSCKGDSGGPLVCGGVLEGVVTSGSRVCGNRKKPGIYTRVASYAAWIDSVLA

Compound | IC50 [1] | IC50
CCN1Cc2ccc(NC(=O)[C@@H]3C[C@@H](F)CN3C(=O)Cn3nc(C(N)=O)c4cc(-c5ccnnc5)ccc43)cc2C1=O [Compound 48, 1-(2-((2S,4R)-2-(2-ethyl-3-oxoisoindolin-5-ylcarbamoyl)-4-fluoropyrrolidin-1-yl)-2-oxoethyl)-5-(pyridazin-4-yl)-1H-indazole-3-carboxamide] | > 10000 nM | 
CC(=O)c1cn(CC(=O)N2C[C@H](F)C[C@H]2C(=O)Nc2noc(-c3ccccc3Cl)n2)c2ccc(-c3ccnnc3)cc12 [Compound 182, (2S,4R)-1-(2-(3-acetyl-5-(pyridazin-4-yl)-1H-indol-1-yl)acetyl)-N-(5-(2-chlorophenyl)-1,2,4-oxadiazol-3-yl)-4-fluoropyrrolidine-2-carboxamide] | < 1000 nM | 
CC1Oc2cccc(NC(=O)[C@@H]3C[C@@H](F)CN3C(=O)Cn3nc(C(N)=O)c4cc(-c5ccnnc5)ccc43)c2NC1=O (stereo partly drawn) [Compound 152, 1-(2-((2S,4R)-4-fluoro-2-(2-methyl-3-oxo-3,4-dihydro-2H-benzo[b][1,4]oxazin-5-ylcarbamoyl)pyrrolidin-1-yl)-2-oxoethyl)-5-(pyridazin-4-yl)-1H-indazole-3-carboxamide] | > 10000 nM | 
CC(=O)c1cn(CC(=O)N2C[C@H](F)C[C@H]2C(=O)NC2CCCc3nc(-c4ccc(F)cc4)sc32)c2ccc(-c3ccnnc3)cc12 (stereo partly drawn) [Compound 106, (2S,4R)-1-(2-(3-acetyl-5-(pyridazin-4-yl)-1H-indol-1-yl)acetyl)-4-fluoro-N-(2-(4-fluorophenyl)-4,5,6,7-tetrahydrobenzo[d]thiazol-7-yl) pyrrolidine-2-carboxamide] | > 10000 nM | 
CC(=O)c1cn(CC(=O)N2C[C@H](F)C[C@H]2C(=O)NC2CCCN(c3cnn(C)c3)C2)c2ccc(-c3ccnnc3)cc12 (stereo partly drawn) [Compound 140, (2S,4R)-1-(2-(3-acetyl-5-(pyridazin-4-yl)-1H-indol-1-yl)acetyl)-4-fluoro-N-(1-(1-methyl-1H-pyrazol-4-yl)piperidin-3-yl)pyrrolidine-2-carboxamide] |  | 1000 to 10000 nM
COc1ncc(-c2ccc3c(c2)c(C(C)=O)cn3CC(=O)N2[C@@H]3C[C@@H]3C[C@H]2C(=O)Nc2cccc(Br)n2)cn1 [Compound 81, (1R,3S,5R)-2-(2-(3-acetyl-5-(2-methoxypyrimidin-5-yl)-1H-indol-1-yl)acetyl)-N-(6-bromopyridin-2-yl)-2-azabicyclo[3.1.0] hexane-3-carboxamide] | < 1000 nM | 
CCN1Cc2ccc(NC(=O)[C@@H]3C[C@@H](F)CN3C(=O)Cn3cc(C(C)=O)c4cc(-c5ccnnc5)ccc43)cc2C1=O [Compound 49, (2S,4R)-1-(2-(3-acetyl-5-(pyridazin-4-yl)-1H-indol-1-yl)acetyl)-N-(2-ethyl-3-oxoisoindolin-5-yl)-4-fluoropyrrolidine-2-carboxamide] |  | 1000 to 10000 nM
CC(=O)c1cn(CC(=O)N2C[C@H](F)C[C@H]2C(=O)Nc2cccc(-c3ccccc3Cl)c2F)c2ccc(-c3ccnnc3)cc12 [Compound 20, (2S,4R)-1-(2-(3-Acetyl-5-(pryridazin-4-yl)-1H-indol-1-yl)acetyl)-N-(2′-chloro-2-fluoro-[1,1′-biphenyl]-3-yl)-4-fluoropyrrolidine-2-carboxamide] | < 1000 nM | 
CC(=O)c1cn(CC(=O)N2C[C@H](F)C[C@H]2C(=O)Nc2cncc(Br)n2)c2ccc(-c3ccnnc3)cc12 [Compound 127, (2S,4R)-1-(2-(3-acetyl-5-(pyridazin-4-yl)-1H-indol-1-yl)acetyl)-N-(6-bromopyrazin-2-yl)-4-fluoropyrrolidine-2-carboxamide] | < 1000 nM | 
COc1ncc(-c2ccc3c(c2)c(C(C)=O)cn3CC(=O)N2C[C@H](F)C[C@H]2C(=O)Nc2cccc(-c3ccccc3Cl)c2F)cn1 [Compound 27, (2S,4R)-1-(2-(3-acetyl-5-(2-methoxypyrimidin-5-yl)-1H-indol-1-yl)acetyl)-N-(2′-chloro-2-fluoro-[1,1′-biphenyl]-3-yl)-4-fluoropyrrolidine-2-carboxamide] | < 1000 nM | 
CC(=O)c1cn(CC(=O)N2[C@@H]3C[C@@H]3C[C@H]2C(=O)Nc2cccc(-c3ccccc3Cl)c2F)c2ccc(-c3cnc(C)nc3)cc12 [Compound 133, (1R,3S,5R)-2-(2-(3-acetyl-5-(2-methylpyrimidin-5-yl)-1H-indol-1-yl)acetyl)-N-(2′-chloro-2-fluorobiphenyl-3-yl)-2-azabicyclo[3.1.0] hexane-3-carboxamide] | < 1000 nM | 
NC(=O)c1nn(CC(=O)N2C[C@H](F)C[C@H]2C(=O)Nc2cc(O)ccn2)c2ccc(-c3ccnnc3)cc12 [Compound 154, 1-(2-((2S,4R)-4-fluoro-2-(4-hydroxypyridin-2-ylcarbamoyl)pyrrolidin-l-yl)-2-oxoethyl)-5-(pyridazin-4-yl)-1H-indazole-3-carboxamide] | > 10000 nM | 
NCc1ccc(NC(=O)[C@@H]2C[C@@H](F)CN2C(=O)Cn2nc(C(N)=O)c3cc(-c4ccnnc4)ccc32)cc1 [Compound 70, 1-(2-((2S,4R)-2-(4-(aminomethyl)phenylcarbamoyl)-4-fluoropyrrolidin-1-yl)-2-oxoethyl)-5-(pyridazin-4-yl)-1H-indazole-3-carboxamide] | > 10000 nM | 
NC(=O)c1nn(CC(=O)N2C[C@H](F)C[C@H]2C(=O)NCc2ccccn2)c2ccc(-c3ccnnc3)cc12 [Compound 139, 1-(2-((2S,4R)-4-fluoro-2-(pyridin-2-ylmethylcarbamoyl)pyrrolidin-1-yl)-2-oxoethyl)-5-(pyridazin-4-yl)-1H-indazole-3-carboxamide] |  | 1000 to 10000 nM
NC(=O)c1nn(CC(=O)N2C[C@H](F)C[C@H]2C(=O)Nc2cccc(Cl)c2-n2cncn2)c2ccc(-c3ccnnc3)cc12 [Compound 96, 1-(2-((2S,4R)-2-(3-chloro-2-(1H-1,2,4-triazol-1-yl)phenylcarbamoyl)-4-fluoropyrrolidin-1-yl)-2-oxoethyl)-5-(pyridazin-4-yl)-1H-indazole-3-carboxamide] | > 10000 nM | 
CN1CC=C(c2ccc3c(c2)c(C(N)=O)nn3CC(=O)N2C[C@H](F)C[C@H]2C(=O)Nc2cccc(Br)n2)CC1 [Compound 22, 1-(2-((2S,4R)-2-(6-bromopyridin-2-ylcarbamoyl)-4-fluoropyrrolidin-1-yl)-2-oxoethyl)-5-(1-methyl-1,2,3,6-tetrahydropyridin-4-yl)-1H-indazole-3-carboxamide] | < 1000 nM | 

— patent US9796741B2 (Achillion Pharmaceuticals, Inc., priority 2014, dated 2017)
